Literature values in patent US20080138388A1 (priority 2005, published 2008).
Read-outs that look alike come from different tables or passages of the source.

| logP (octanol-water partition coefficient, free state) | Structure (SMILES) | logP (octanol-water partition coefficient, free state) (free state) |
| --- | --- | --- |
|  | Nc1c(Br)cc(Br)cc1CN[C@H]1CC[C@H](O)CC1 [ambroxol] | 3.00 |
|  | CCCN1C[C@H](CSC)C[C@@H]2c3cccc4[nH]cc(c34)C[C@H]21 [pergolide] | 4.07 |
|  | OC(CCN1CCCCC1)(c1ccccc1)c1ccccc1 [pridinol] | 3.79 |
|  | CCOc1ccccc1OCCN[C@H](C)Cc1ccc(OC)c(S(N)(=O)=O)c1 [tamsulosin] | 3.22 |
| 4.00 | CCOC(=O)[C@H](CCc1ccccc1)N[C@@H](C)C(=O)N1[C@H](C(=O)O)C[C@H]2CCCC[C@@H]21 [trandopril] |  |
